Our source for the IC50 values is patent US20240109918A1, “HETEROCYCLIC COMPOUNDS AND USES THEREOF” (Kumquat Biosciences Inc., priority 2022, published 2024).

pIC50: −log10 of the molar value. A value given as a limit tells only on which side of the number the result lay.

In test [1] the target is T1, KRASG12D (Homo sapiens, UniProt P01116, G12D).
T1 construct: made in house; host or cells: E. coli BL21 (DE3)
Briefly: Bio-Biochem-PPI-HTRF Ras-SOS1 interaction assay (KRAS G12D). In kind it is biochemical. To be noted: 5 nM. In outline:
(§1)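 GST-tagged K-Ras (wt or G12D) with anti-GST-Eu(K) donor was mixed with His-hSOS1 and anti-6His-XL665 acceptor in HEPES pH 7.4/NaCl/DTT/BSA/Igepal buffer, with compound in duplicate from 10 μM down to 0.01 μM. After about 10 min or longer, HTRF 665/620 nm ratio gave IC50.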

Test [2] addresses T2, KRASwt (Homo sapiens, UniProt P01116).
T2 construct: made in house; host or cells: E. coli BL21 (DE3)
In words: Bio-Biochem-PPI-HTRF Ras-SOS1 interaction assay (KRAS wt). In kind it is biochemical. The conditions noted are these: 5 nM. In outline: as §1
In general terms: Time-resolved FRET reads energy transfer from a long-lived donor to a nearby acceptor.

T1 sequence (P01116 1-188 isoform P01116-2 G12D): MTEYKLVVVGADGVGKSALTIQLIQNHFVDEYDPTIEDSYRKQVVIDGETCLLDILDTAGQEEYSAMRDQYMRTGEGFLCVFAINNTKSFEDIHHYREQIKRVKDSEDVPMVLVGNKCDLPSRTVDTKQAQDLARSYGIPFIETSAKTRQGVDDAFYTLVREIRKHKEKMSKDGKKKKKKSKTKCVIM
T2 sequence (P01116 1-188 isoform P01116-2): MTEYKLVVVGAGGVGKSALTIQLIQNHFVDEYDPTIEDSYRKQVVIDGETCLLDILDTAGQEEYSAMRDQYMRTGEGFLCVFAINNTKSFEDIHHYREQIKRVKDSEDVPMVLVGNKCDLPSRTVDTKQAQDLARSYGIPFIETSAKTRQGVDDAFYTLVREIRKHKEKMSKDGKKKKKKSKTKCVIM

For `N#Cc1c(N)sc2c(F)ccc(-c3c(Cl)cc4c(N5CCCCC6(CN(C(=O)C[C@H]7CCOC7)C6)C5)nc(OC[C@@]56CCCN5C[C@H](F)C6)nc4c3F)c12` [compound 304, 2-amino-4-(6-chloro-8-fluoro-2-(((2R,7aS)-2-fluorotetrahydro-1H-pyrrolizin-7a(5H)-yl)methoxy)-4-(2-(2-((R)-tetrahydrofuran-3-yl)acetyl)-2,6-diazaspiro[3.6]decan-6-yl)quinazolin-7-yl)-7-fluorobenzo[b]thiophene-3-carbonitrile], the negative logarithm of the IC50 (pIC50) in test [1] and in test [2] was more than 5.30 throughout.
Turning to `C#Cc1c(F)ccc2cc(O)cc(-c3ccc4c(N5CCCCC6(CN(C(=O)[C@H]7CC7(F)F)C6)C5)nc(OC[C@@]56CCCN5C[C@H](F)C6)nc4c3F)c12` [compound 305, ((R)-2,2-difluorocyclopropyl) (6-(7-(8-ethynyl-7-fluoro-3-hydroxynaphthalen-1-yl)-8-fluoro-2-(((2R,7aS)-2-fluorotetrahydro-1H-pyrrolizin-7a(5H)-yl)methoxy)quinazolin-4-yl)-2,6-diazaspiro[3.6]decan-2-yl)methanone], the pIC50 in test [1] and in test [2] was more than 5.30 in each case.
Turning to `COC1CN(C(=O)N2CC3(CCCCN(c4nc(OC[C@@]56CCCN5C[C@H](F)C6)nc5c(F)c(-c6ccc(F)c7sc(N)c(C#N)c67)c(Cl)cc45)C3)C2)C1` [compound 306, 2-amino-4-(6-chloro-8-fluoro-2-(((2R,7aS)-2-fluorotetrahydro-1H-pyrrolizin-7a(5H)-yl)methoxy)-4-(2-(3-methoxyazetidine-1-carbonyl)-2,6-diazaspiro[3.6]decan-6-yl)quinazolin-7-yl)-7-fluorobenzo[b]thiophene-3-carbonitrile], the pIC50 in test [1] and in test [2] was more than 5.30 throughout.
In the case of `N#Cc1c(N)sc2c(F)ccc(-c3c(Cl)cc4c(N5CCCC6(CN(C(=O)N7CC(C#N)C7)C6)C5)nc(OC[C@@]56CCCN5C[C@H](F)C6)nc4c3F)c12` [compound 308, 1-(6-(7-(2-amino-3-cyano-7-fluorobenzo[b]thiophen-4-yl)-6-chloro-8-fluoro-2-(((2R,7aS)-2-fluorotetrahydro-1H-pyrrolizin-7a(5H)-yl)methoxy)quinazolin-4-yl)-2,6-diazaspiro[3.5]nonane-2-carbonyl)azetidine-3-carbonitrile], the pIC50 in test [1] and in test [2] was more than 5.30 throughout.
`N#Cc1c(N)sc2c(F)ccc(-c3c(Cl)cc4c(N5CCCCC6(CN(C(=O)C7CC8(C7)CC8(F)F)C6)C5)nc(OC[C@@]56CCCN5C[C@H](F)C6)nc4c3F)c12` (stereo partly drawn) [compound 309, 2-amino-4-(6-chloro-4-(2-(1,1-difluorospiro[2.3]hexane-5-carbonyl)-2,6-diazaspiro[3.6]decan-6-yl)-8-fluoro-2-(((2R,7aS)-2-fluorotetrahydro-1H-pyrrolizin-7a(5H)-yl)methoxy)quinazolin-7-yl)-7-fluorobenzo[b]thiophene-3-carbonitrile]: the pIC50 in test [1] and in test [2] was more than 5.30 each time.
In the case of `N#Cc1c(N)sc2c(F)ccc(-c3c(Cl)cc4c(N5CCCCC6(CN(C(=O)C7CC7C(F)(F)F)C6)C5)nc(OC[C@@]56CCCN5C[C@H](F)C6)nc4c3F)c12` (stereo partly drawn) [compound 311, 2-amino-4-(6-chloro-8-fluoro-2-(((2R,7aS)-2-fluorotetrahydro-1H-pyrrolizin-7a(5H)-yl)methoxy)-4-(2-(2-(trifluoromethyl)cyclopropane-1-carbonyl)-2,6-diazaspiro[3.6]decan-6-yl)quinazolin-7-yl)-7-fluorobenzo[b]thiophene-3-carbonitrile], the pIC50 in test [1] and in test [2] was more than 5.30 in each case.
Take `CN(C)CCC(=O)N1CC2(C1)CN(c1nc(OC[C@@]34CCCN3C[C@H](F)C4)nc3c(F)c(-c4ccc(F)c5sc(N)c(C#N)c45)c(Cl)cc13)CCO2` [compound 312, 2-amino-4-(6-chloro-4-(2-(3-(dimethylamino)propanoyl)-5-oxa-2,8-diazaspiro[3.5]nonan-8-yl)-8-fluoro-2-(((2R,7aS)-2-fluorotetrahydro-1H-pyrrolizin-7a(5H)-yl)methoxy)quinazolin-7-yl)-7-fluorobenzo[b]thiophene-3-carbonitrile]: the pIC50 in test [1] and in test [2] was more than 5.30 throughout.
As to `N#Cc1c(N)sc2c(F)ccc(-c3c(Cl)cc4c(N5CCC(OC(F)F)CC6(CN(C(=O)[C@@H]7CC7(F)F)C6)C5)nc(OC[C@@]56CCCN5C[C@H](F)C6)nc4c3F)c12` (stereo partly drawn) [compound 313, 2-amino-4-(6-chloro-4-(2-((S)-2,2-difluorocyclopropane-1-carbonyl)-9-(difluoromethoxy)-2,6-diazaspiro[3.6]decan-6-yl)-8-fluoro-2-(((2R,7aS)-2-fluorotetrahydro-1H-pyrrolizin-7a(5H)-yl)methoxy)quinazolin-7-yl)-7-fluorobenzo[b]thiophene-3-carbonitrile], the pIC50 in test [1] and in test [2] was more than 5.30 in each case.
As for `N#Cc1c(N)sc2c(F)ccc(-c3c(Cl)cc4c(N5CCCCC6(CN(C(=O)C7CCCN7)C6)C5)nc(OC[C@@]56CCCN5C[C@H](F)C6)nc4c3F)c12` (stereo partly drawn) [compound 314, 2-amino-4-(6-chloro-8-fluoro-2-(((2R,7aS)-2-fluorotetrahydro-1H-pyrrolizin-7a(5H)-yl)methoxy)-4-(2-prolyl-2,6-diazaspiro[3.6]decan-6-yl)quinazolin-7-yl)-7-fluorobenzo[b]thiophene-3-carbonitrile], the pIC50 in test [1] and in test [2] was more than 5.30 each time.
With `C#Cc1c(F)ccc2cc(O)cc(-c3ncc4c(N5CCOCC6(CN(C(=O)[C@H]7CC7(F)F)C6)C5)nc(OC[C@@]56CCCN5C[C@H](F)C6)nc4c3F)c12` [compound 316, ((R)-2,2-difluorocyclopropyl) (9-(7-(8-ethynyl-7-fluoro-3-hydroxynaphthalen-1-yl)-8-fluoro-2-(((2R,7aS)-2-fluorotetrahydro-1H-pyrrolizin-7a(5H)-yl)methoxy)pyrido[4,3-d]pyrimidin-4-yl)-6-oxa-2,9-diazaspiro[3.6]decan-2-yl)methanone], the pIC50 in test [1] and in test [2] was more than 5.30 throughout.
Regarding `N#Cc1c(N)sc2c(F)ccc(-c3c(Cl)cc4c(N5CCCCC6(CN(C(=O)C(F)F)C6)C5)nc(OC[C@@]56CCCN5C[C@H](F)C6)nc4c3F)c12` [compound 317, 2-amino-4-(6-chloro-4-(2-(2,2-difluoroacetyl)-2,6-diazaspiro[3.6]decan-6-yl)-8-fluoro-2-(((2R,7aS)-2-fluorotetrahydro-1H-pyrrolizin-7a(5H)-yl)methoxy)quinazolin-7-yl)-7-fluorobenzo[b]thiophene-3-carbonitrile], the pIC50 in test [1] and in test [2] was more than 5.30 throughout.
Take `C[C@H](O)C(=O)N1CC2(CCCCN(c3nc(OC[C@@]45CCCN4C[C@H](F)C5)nc4c(F)c(-c5ccc(F)c6sc(N)c(C#N)c56)c(Cl)cc34)C2)C1` [compound 318, 2-amino-4-(6-chloro-8-fluoro-2-(((2R,7aS)-2-fluorotetrahydro-1H-pyrrolizin-7a(5H)-yl)methoxy)-4-(2-((S)-2-hydroxypropanoyl)-2,6-diazaspiro[3.6]decan-6-yl)quinazolin-7-yl)-7-fluorobenzo[b]thiophene-3-carbonitrile]: the pIC50 in test [1] and in test [2] was more than 5.30 throughout.
